The nature of data set [1]: in vitro. To be noted: human, Huh7/C24 cells.
Description: Cytotoxicity against human Huh7/C24 cells after 72 hrs by bDNA assay
Data set [2] in a line: in vitro. Conditions: human, liver microsomes.
The subject of another data set is Hepatitis C virus. The data set can be described thus: microbe, parasite or virus in culture. To be noted: genotype 1b, Huh-7, 72 h.

The structures appear in SMILES notation. Some results are limits rather than exact numbers.

This is an account of results in ChEMBL document CHEMBL1156075, “5,5'- and 6,6'-dialkyl-5,6-dihydro-1H-pyridin-2-ones as potent inhibitors of HCV NS5B polymerase” (Bioorg Med Chem Lett, 2009).

The CC50 is the concentration at which the toxic effect on the cells reaches its halfway point. High values mean better tolerance by the cells, low ones harm at low concentration. One may read the half-life as the time needed for the level to fall by half in the phase considered. The EC50 is the concentration at which the effect is half-maximal. Low readings indicate greater potency, high ones weaker potency. In the data set “in vitro [1]”, `CC(C)[C@H]1CC(O)=C(C2=NS(=O)(=O)c3cc(NS(C)(=O)=O)ccc3N2)C(=O)N1Cc1ccc(F)cc1` returned a CC50 at 72 h greater than 1000 nM. This molecule also showed a half-life at 5 µM in the data set “in vitro [2]” greater than 60 min. This molecule also showed a 50% effective concentration (EC50) in the data set on Hepatitis C virus of 45 nM.
The matching figures for `CC(C)(C)[C@H]1CC(O)=C(C2=NS(=O)(=O)c3cc(NS(C)(=O)=O)ccc3N2)C(=O)N1Cc1ccc(F)cc1`: greater than 10000 nM, greater than 60 min and 810 nM.
Take `CC(C)CC[C@@H]1CN(C2CCCC2)C(=O)C(C2=NS(=O)(=O)c3cc(NS(C)(=O)=O)ccc3N2)=C1O`: the CC50 at 72 h in “in vitro [1]” is greater than 33000 nM. For the same molecule, in “in vitro [2]”, the half-life at 5 µM was found to be 32 min. In the data set on Hepatitis C virus, this molecule returned an EC50 of 43 nM.
In the data set “in vitro [1]”, `CS(=O)(=O)Nc1ccc2c(c1)S(=O)(=O)N=C(C1=C(O)C[C@@H](c3ccc(F)cc3)N(Cc3ccc(F)cc3)C1=O)N2` showed a half-maximal cytotoxic concentration (CC50) at 72 h greater than 10000 nM. Also, the half-life at 5 µM in the data set “in vitro [2]” was greater than 60 min. Moreover, in the data set with Hepatitis C virus, the EC50 is 520 nM.
Take `CC(C)CC[C@@H]1CC(O)=C(C2=NS(=O)(=O)c3cc(NS(C)(=O)=O)ccc3N2)C(=O)N1Cc1ccc(F)cc1`: in “in vitro [2]”, the half-life at 5 µM turned out to be 7.6 min. In the data set with Hepatitis C virus, this molecule displayed an EC50 of 5500 nM.
Take `CS(=O)(=O)Nc1ccc2c(c1)S(=O)(=O)N=C(C1=C(O)C3(CC3)CN(Cc3ccc(F)cc3)C1=O)N2`: the CC50 at 72 h in “in vitro [1]” was greater than 1000 nM. Also, the half-life at 5 µM in “in vitro [2]” is greater than 60 min. This molecule also showed a 50% effective concentration (EC50) in the data set with Hepatitis C virus of 550 nM.
The corresponding values for `CC(C)CC[C@]1(C)CN(C2CC2)C(=O)C(C2=NS(=O)(=O)c3cc(NS(C)(=O)=O)ccc3N2)=C1O` are greater than 33000 nM, 5.5 min and 97 nM.
`CS(=O)(=O)Nc1ccc2c(c1)S(=O)(=O)N=C(C1=C(O)CCN(Cc3ccc(F)cc3)C1=O)N2`: in “in vitro [1]”, the CC50 at 72 h is greater than 33000 nM. Besides, the half-life at 5 µM in “in vitro [2]” is greater than 60 min. Besides, the half-maximal effective concentration (EC50) in the data set with Hepatitis C virus came out at 3900 nM.
The molecule `CC[C@@]1(C)CN(Cc2ccc(F)cc2)C(=O)C(C2=NS(=O)(=O)c3cc(NS(C)(=O)=O)ccc3N2)=C1O` had a CC50 at 72 h in “in vitro [1]” greater than 1000 nM. Moreover, the half-life at 5 µM in “in vitro [2]” was greater than 60 min. In addition, the response in the data set on Hepatitis C virus was half-maximal at 160 nM (EC50).
The matching figures for `CC(C)CC[C@@]1(C)CN(Cc2ccc(F)cc2)C(=O)C(C2=NS(=O)(=O)c3cc(NS(C)(=O)=O)ccc3N2)=C1O`: greater than 33000 nM, 5.7 min and 770 nM.
For the molecule `C[C@@]1(Cc2ccc(F)cc2)CN(C2CC2)C(=O)C(C2=NS(=O)(=O)c3cc(NS(C)(=O)=O)ccc3N2)=C1O`, in the data set “in vitro [1]”, the 50% cytotoxic concentration (CC50) at 72 h was greater than 33000 nM. In the data set on Hepatitis C virus, this molecule registered a half-maximal effective concentration (EC50) of 2100 nM.
On to `C[C@]1(CC2CC2)CN(Cc2ccc(F)cc2)C(=O)C(C2=NS(=O)(=O)c3cc(NS(C)(=O)=O)ccc3N2)=C1O`, for which the CC50 at 72 h in “in vitro [1]” was greater than 33000 nM. Besides, the half-life at 5 µM in the data set “in vitro [2]” is greater than 60 min. This molecule displayed an EC50 in the data set on Hepatitis C virus of 200 nM.
The corresponding values for `CC(C)(C)CC[C@]1(C)CN(C2CC2)C(=O)C(C2=NS(=O)(=O)c3cc(NS(C)(=O)=O)ccc3N2)=C1O` are greater than 10000 nM, 10 min and 330 nM.
Take `C[C@@]1(Cc2ccc(F)cc2)CN(C2CCCC2)C(=O)C(C2=NS(=O)(=O)c3cc(NS(C)(=O)=O)ccc3N2)=C1O`: in “in vitro [1]”, the CC50 at 72 h is greater than 33000 nM. The same molecule came in with an EC50 in the data set with Hepatitis C virus of 14000 nM.
`CC(C)C[C@@H]1CC(O)=C(C2=NS(=O)(=O)c3cc(NS(C)(=O)=O)ccc3N2)C(=O)N1Cc1ccc(F)cc1` registered a half-life at 5 µM in “in vitro [2]” greater than 60 min. In addition, in the data set on Hepatitis C virus, a half-maximal response (EC50) required 2900 nM.
Regarding `CC(C)CC[C@]1(C)CN(c2ccccc2)C(=O)C(C2=NS(=O)(=O)c3cc(NS(C)(=O)=O)ccc3N2)=C1O`, the half-life at 5 µM in “in vitro [2]” was greater than 2.3 min.
`CC(C)CC[C@]1(C)CN(C2CCCC2)C(=O)C(C2=NS(=O)(=O)c3cc(NS(C)(=O)=O)ccc3N2)=C1O` displayed a CC50 at 72 h in “in vitro [1]” greater than 33000 nM. This molecule also showed a half-life at 5 µM in “in vitro [2]” greater than 2.6 min.
The molecule `CC[C@@H]1CC(O)=C(C2=NS(=O)(=O)c3cc(NS(C)(=O)=O)ccc3N2)C(=O)N1Cc1ccc(F)cc1` yielded a half-life at 5 µM in the data set “in vitro [2]” greater than 60 min. The same molecule yielded an EC50 in the data set with Hepatitis C virus of 970 nM.
